Assay [1] concerns colorectal cancer cell (HCT-116). Put plainly: Cytotoxic activity, MTT assay, HCT-116. The settings on record: for IC50: Homo sapiens, HCT-116, 48 h, read-out: HCT-116 IC50. It is filed as cell-based, human. A general note: Tetrazolium assays rely on reduction of a dye to a coloured formazan, in cell work by metabolically active cells.
The test system of assay [2] is African green monkey kidney cell line (Vero-B). Put plainly: Cytotoxic activity, MTT assay, normal Vero-B cells. It is filed as cell-based. To be noted: for IC50: Chlorocebus sabaeus, Vero B, read-out: VERO-B IC50.
Assay [3] relates to prostate carcinoma cells (PC-3). Put plainly: Cytotoxic activity, MTT assay, PC-3. It is filed as cell-based, human. The settings on record: for IC50: Homo sapiens, 48 h, read-out: PC-3 IC50.
For assay [4], the system named is hepatocellular carcinoma cells (HepG-2). Put plainly: Cytotoxic activity, MTT assay, HepG-2. It is filed as cell-based, human. To be noted: for IC50: Homo sapiens, HepG2, 48 h, read-out: HepG-2 IC50.
Assay [5] deals with HCT-116, PC-3, and HepG-2. Put plainly: Antitumor activity against cancer cell lines, summary in words. It is filed as cell-based, human. To be noted: HCT-116, PC-3 and HepG-2 cell lines.
For assay [6], the target named is phosphodiesterase I (Crotalus adamanteus, UniProt J3SEZ3). Put plainly: biochemical. Also noted: species or system snake.
Chain of phosphodiesterase I (J3SEZ3 24-851 limits assumed): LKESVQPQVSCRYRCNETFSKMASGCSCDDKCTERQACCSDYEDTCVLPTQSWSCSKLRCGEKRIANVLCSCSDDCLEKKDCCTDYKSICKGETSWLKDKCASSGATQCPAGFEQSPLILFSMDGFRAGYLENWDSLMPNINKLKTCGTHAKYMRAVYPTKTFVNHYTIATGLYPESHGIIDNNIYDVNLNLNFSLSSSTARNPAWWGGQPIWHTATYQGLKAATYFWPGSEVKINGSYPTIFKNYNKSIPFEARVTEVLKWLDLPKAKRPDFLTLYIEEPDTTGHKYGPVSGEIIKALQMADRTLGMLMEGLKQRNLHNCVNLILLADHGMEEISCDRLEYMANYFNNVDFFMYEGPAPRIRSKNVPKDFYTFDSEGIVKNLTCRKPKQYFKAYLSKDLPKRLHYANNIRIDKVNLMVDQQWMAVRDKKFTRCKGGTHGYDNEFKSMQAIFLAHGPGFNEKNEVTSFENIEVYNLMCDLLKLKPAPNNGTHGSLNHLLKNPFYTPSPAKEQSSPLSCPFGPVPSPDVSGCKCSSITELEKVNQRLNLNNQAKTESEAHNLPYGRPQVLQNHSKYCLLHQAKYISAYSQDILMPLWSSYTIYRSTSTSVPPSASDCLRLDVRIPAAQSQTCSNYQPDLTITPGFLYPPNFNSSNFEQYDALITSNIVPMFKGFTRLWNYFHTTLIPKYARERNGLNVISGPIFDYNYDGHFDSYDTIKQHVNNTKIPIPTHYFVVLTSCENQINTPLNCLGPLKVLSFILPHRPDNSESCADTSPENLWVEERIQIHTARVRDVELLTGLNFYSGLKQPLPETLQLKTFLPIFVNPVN
Assay [7] relates to Vero cell line. Put plainly: Wound-healing assay. To be noted: 35 or 70 µM; up to 48 h. It is filed as cell-based, African green monkey.
Where [8] appears, read: MTT, 48 h incubation, ± SD of three experiments.
[9] abbreviates: normal cells, MTT, 48 h incubation, ± SD of three experiments.

One may read the IC50 as the concentration at which inhibition is half-maximal. By inhibition is commonly meant the change of the read-out against control, counted positive when it falls.

Converted amounts (≈) assume the structure as drawn. “Also recorded” adds a separate entry of the source. Read-outs that look alike come from different tables or passages of the source.

Consider `C=C(C)[C@@H]1CC[C@]2(C)CC[C@]3(C)[C@H](CC[C@@H]4[C@@]5(C)CCC(OC(=O)/C=C/c6ccc(O)c(O)c6)C(C)(C)[C@@H]5CC[C@]43C)[C@@H]12` (some centres unmarked) [Compound 5, lupeol caffeate], for which the IC50 in assay [1] (setting [8]) amounted to 59 ± 0.45 µg/mL (≈ 100 µM); in assay [2] (setting [9]) it was 81 ± 1.1 µg/mL (≈ 138 µM); in assay [3] (setting [8]), 59 ± 0.45 µg/mL (≈ 100 µM); in assay [4] (setting [8]), 59 ± 0.45 µg/mL (≈ 100 µM).

As to `C=C(CO)[C@@H]1CC[C@]2(C)CC[C@]3(C)[C@H](CC[C@@H]4[C@@]5(C)CCC(OC(=O)/C=C/c6ccc(O)c(O)c6)C(C)(C)[C@@H]5CC[C@]43C)[C@@H]12` (stereo partly drawn) [Compound 6, 30-hydroxy lup-20(29)-ene 3β-caffeate], the IC50 in assay [1] (setting [8]) amounted to 68 ± 1.72 µg/mL (≈ 112 µM); in assay [2] (setting [9]) it was 68 ± 0.3 µg/mL (≈ 112 µM); in assay [3] (setting [8]), 68 ± 1.72 µg/mL (≈ 112 µM); in assay [4] (setting [8]), 68 ± 1.72 µg/mL (≈ 112 µM).

As to `CC(=O)[C@@H]1CC[C@]2(C)CC[C@]3(C)[C@H](CC[C@@H]4[C@@]5(C)CC[C@H](O)C(C)(C)[C@@H]5CC[C@]43C)[C@@H]12` [Compound 2, 30-norlup-3β-ol-20-one], the IC50 in assay [1] (setting [8]), in assay [2] (setting [9]), in assay [3] (setting [8]) and in assay [4] (setting [8]) was above 100 µg/mL each time.

As to `CC[C@H](CC[C@@H](C)[C@H]1CC[C@H]2[C@@H]3CC=C4C[C@@H](O)CC[C@]4(C)[C@H]3CC[C@]12C)C(C)C` [Compound 9, β-sitosterol], the IC50 in assay [1], in assay [2] (48 h), in assay [3] and in assay [4] was above 100 µg/mL in each case. Further, the “antitumor activity (in words)” value in assay [5] is “no activity”.

As for `O=C(O)CN(CCN(CC(=O)O)CC(=O)O)CC(=O)O` [EDTA, reference compound], in assay [6] (positive control, read-out: IC50 ± SD, phosphodiesterase I), the IC50 worked out at 274 ± 0.007 µM.

`C=C(C)[C@@H]1CC[C@]2(C)CC[C@]3(C)[C@H](CC[C@@H]4[C@@]5(C)CC[C@H](O)C(C)(C)[C@@H]5CC[C@]43C)[C@@H]12` [Compound 1, lupeol]: the IC50 in assay [1] (setting [8]), in assay [2] (setting [9]), in assay [3] (setting [8]) and in assay [4] (setting [8]) was above 100 µg/mL in each case.

For `C=C(C=O)C1CCC2(C)CCC3(C)C(CCC4C5(C)CCC(OC(=O)C=Cc6ccc(O)c(O)c6)C(C)(C)C5CCC43C)C12` (stereo not drawn) [Compound 7, lup-20(29)-ene 3β-caffeate-30-al], the IC50 in assay [1] (setting [8]) was 62 ± 1.42 µg/mL (≈ 103 µM); in assay [2] (setting [9]) it was above 100 µg/mL; in assay [3] (setting [8]), 62 ± 1.42 µg/mL (≈ 103 µM); in assay [4] (setting [8]) it was 62 ± 1.42 µg/mL (≈ 103 µM).

`CC[C@H](CC[C@@H](C)C1CCC2C3C(=O)C=C4C[C@@H](O)CC[C@]4(C)C3CC[C@@]21C)C(C)C` (stereo partly drawn) [Compound 13, 7-keto-β-sitosterol]: the IC50 in assay [1] (setting [8]) amounted to 22.3 ± 0.24 µg/mL (≈ 52 µM); in assay [2] (setting [9]), 64 ± 1.1 µg/mL (≈ 149 µM); in assay [3] (setting [8]), 22.3 ± 0.24 µg/mL (≈ 52 µM); in assay [4] (setting [8]), 22.3 ± 0.24 µg/mL (≈ 52 µM). The “antitumor activity (in words)” value in assay [5] was “moderate activity”.

Turning to `CC[C@H](CC[C@@H](C)C1CCC2C3C(O)C=C4C[C@@H](O)CC[C@]4(C)C3CC[C@@]21C)C(C)C` (stereo partly drawn) [Compound 11, 7α-hydroxy-β-sitosterol], the IC50 was around 8 µg/mL (≈ 18.6 µM) in assay [1] (setting [8]), 70 ± 0.5 µg/mL (≈ 163 µM) in assay [2] (setting [9]), around 8 µg/mL (≈ 18.6 µM) in assay [3] (setting [8]) and around 8 µg/mL (≈ 18.6 µM) in assay [4] (setting [8]). Also, the “antitumor activity (in words)” value in assay [5] is recorded as “broad-spectrum activity”. The “wound healing of normal cells” value in assay [7] was “able to heal the wound at a rate closer to that observed for untreated cells; also recorded: wound size decreased”. Moreover, the inhibition at 2 µM in assay [6] (read-out: phosphodiesterase I enzyme inhibition) came to 80.2%.

On to `C=C(CO)[C@@H]1CC[C@]2(C)CC[C@]3(C)[C@H](CC[C@@H]4[C@@]5(C)CC[C@H](O)C(C)(C)[C@@H]5CC[C@]43C)[C@@H]12` [Compound 4, lup-20(29)-ene-3β,30-diol], for which the IC50 in assay [1] (setting [8]), in assay [2] (setting [9]), in assay [3] (setting [8]) and in assay [4] (setting [8]) was above 100 µg/mL throughout.

For the molecule `N.N.[Cl][Pt][Cl]` [Cisplatin, cis-diamineplatinum (II) dichloride, reference compound], the “HCT-116 IC50” value in assay [1] (setting [8]) came to 12.6 ± 2 µg/mL. Moreover, the “VERO-B IC50” value in assay [2] (setting [9]) was 11 ± 1.3 µg/mL. In assay [3] (setting [8]), the “PC-3 IC50” value is recorded as 5 ± 0.45 µg/mL. Moreover, the “HepG-2 IC50” value in assay [4] (setting [8]) came out at 5 ± 1.5 µg/mL.

Consider `C=C(C)[C@@H]1CC[C@]2(C)CC[C@]3(C)[C@@H](CC[C@@H]4[C@@]5(C)C=CC(=O)C(C)(C)[C@@H]5CC[C@]43C)[C@@H]12` [Compound 3, ∆^1-lupenone], for which the IC50 in assay [1] (setting [8]), in assay [2] (setting [9]), in assay [3] (setting [8]) and in assay [4] (setting [8]) was above 100 µg/mL throughout.

(Values after article PMC7827382, “Sterols and Triterpenes from Dobera glabra Growing in Saudi Arabia and Their Cytotoxic Activity” (Plants, 2021).)
